Laboratory results published in US20120237552A1, “Peptoid Agonists of Nerve Growth Factor and Their Use as Medicaments” (priority 2009, published 2012).
“Also recorded” adds a separate entry of the source.

Columns and labels:
[1] = Serum transaminases levels in treated EAE mice; assay type: in vivo; details: daily intraperitoneal treatment, N35-4-17C at the higher concentrations
Description: (§1) The agonist molecules selected for the animal studies, N35-4-8C, N6-4-17C and N35-4-17C, were prepared in water with 5% DMSO. Animals were treated with the agonist molecule (25, 50 and 100 mg/kg) or placebo (water+5% DMSO) through daily intraperitoneal injection starting after immunization. At the end of the study, mice were anesthetized and perfused intracardially with 4% of paraformaldehyde in 0.1M phosphate buffer (pH 7.6). Brains, spinal cords and spleens were dissected and either fixed or frozen until use. Serum was obtained from all animals included in the study, and transaminases levels were measured.

[2] = tested on: C57BL/6 EAE mice; test: Experimental autoimmune encephalomyelitis (EAE) clinical score; assay type: in vivo; details: daily intraperitoneal
Description: Trials were approved by the Parc Cientific de Barcelona Committee on Animal Care. Female C57BL/6 mice from Harlan (8-12 weeks old) were immunized subcutaneously in both hind pads with 300 μg of myelin oligodendrocyte glycoprotein (MOG) peptide 35-55 (Spikem, Firenze) emulsified with 50 μg of Mycobacterium tuberculosis (H37Ra strain; Difco, Detroit, Mich.) in incomplete Freund's adjuvant (IFA) as previously described (Adams et al. 2007). Mice were intraperitoneally injected with Pertussis toxin (Sigma)(500 ng) at the time of immunization and 2 days later. Animals were weighted and inspected for clinical signs of disease on a daily basis by a blinded observer. Disease severity of EAE was assessed according to the following scale: 0=normal; 0.5=mild limp tail; 1=limp tail; 2=mild parapesis of the hind limbs, unsteady gait; 3=moderate parapesis, voluntary movements still possible; 4=paraplegia or tetraparesis; 5=moribund state. Data shown for the clinical studies are representative of two independent experiments performed with the indicated number of animals (Moreno et al., 2006).
as §1
In order to evaluate the effects of the NGF-like peptoids “in vivo”, we studied the effect of the NGF-mimetic peptoids in the animal model of MS. C57BL/6 mice immunized with MOG35-55 peptide were treated daily with N35-4-8C, N6-4-17C and N35-4-17C intraperitoneally from day 0 to day 25 at a different concentrations of the compound. N35-4-8C was tested at 3 different concentrations selected in base to previous experiments using agonist molecules in animal models: 25 mg/kg, 50 mg/kg and 100 mg/kg. […] N35-4-17C was also tested at the same concentrations. […] Moreover, the treatment had higher clinical scores with a clear worsening in the progression of the disease (FIG. 4C).

[3] = tested on: RN22 cells; test: RN22 cell survival under CuSO4 stress (MTT); assay type: cell-based, rat; details: CuSO4 150 μM, 24 h, peptoids 1 ng/ml-10 μg/ml; compared with NGF 100 ng/ml
Description: The library was also tested to assess their capacity to promote cell survival of myelin producing cells. To delineate p75 signalling independent of TrkA, we used a rat schwannoma cell line (RN22) expressing p75, but not TrkA, (Gentry et al., 2000).
The rat schawnnoma cell line RN22 was cultured in 5% CO2 at 37° C. in Dulbecco's modified Eagle's medium (DMEM) with 10% fetal bovine serum (FBS) and penicillin/streptomycin.
RN22 cells were plated at 20,000 cells/well on a 24-well plate in DMEM alone and after allowing the cells to adhere for 3 days, cupper sulphate (CuSO4) (150 μM) was added with or without NGF (100 ng/ml) or the peptoids N35-4-8C, N6-4-17C and N35-4-17C at different concentrations (1 ng/ml-10 μg/ml) to generate stress and cell death. After 24 h cell viability was studied by determining the amount of yellow MTT (Sigma) that was reduced to insoluble purple formazan. After removing the medium, the water-insoluble formazan was solubilised with DMSO (Sigma), and the dissolved material was measured spectrophotometrically at a wavelength of 570 nm, subtracting the background at 650 nm (Frade, 2005).

[4] = tested on: PC12 cells; test: PC12 cell differentiation (neurite outgrowth); assay type: cell-based, rat; details: 3 days, peptoids 2 ng/ml to 50 μg/ml, reduced serum (0.5% FBS and 1% HS); compared with NGF 100 ng/ml
Description: PC 12 cell differentiation was measured by plating cells onto collagen-coated 24-wells plates. NGF (100 ng/ml) or the small chemicals at different concentrations were added and the percentage of cells with neurite processes greater than two cell bodies in length were counted after relevant treatment. For each experiment at least 300 cells were randomly measured (Burstein and Greene, 1978).
PC12 cells were maintained at 37° C. in DMEM supplemented with 2.5% FBS, 15% of Horse serum (HS) and penicillin/streptomycin in a humidified 5% CO2 incubator. The cells were grown on 60- and 100-mm tissue culture dishes (Becton Dickinson).
PC 12 cells were cultured for 3 days in the presence of the peptoids (from 2 ng/ml to 50 μg/ml) under reduced serum conditions (0.5% FBS and 1% HS).

[5] = tested on: IκBα; test: IκBα phosphorylation / NF-κB pathway activation in PC12 and RN22 cells (western blot); assay type: cell-based, rat; details: 100 ng/ml
Description: (§2) Western Blot Analysis. Subconfluent cells were grown overnight in medium containing 2% FBS and 1% HS and stimulated with 100 ng/ml NGF or the NGF-like small chemicals for the indicated time points. Cells were then washed with cold phosphate-buffered saline (PBS) and briefly sonicated in SDS sample buffer (containing β-mercaptoethanol and 2 mM PMSF). Lysates (200 μg of total proteins) were separated on SDS-PAGE, and transferred to nitrocellulose (Whatman, Dassel, Germany). After blocking with 5% nonfat milk in TBST buffer (10 mM Tris pH 7.5; 150 mM NaCl/0.2% Tween 20), blots were probed overnight at 4° C. with anti-p-TrkA (Tyr 490) antibody (1:1000), anti TrkA antibody (1:1000), anti-p-IκBα (Ser 32/36)(5A5) mouse antibody (1/1000), anti IκBα (L35A5) mouse antibody (1:1000), anti-p-SAPK/JNK (Thr183/Tyr185) antibody (1:1000) or anti-SAPK/JNK antibody (1/1000)(all of them from Cell Signaling), followed by incubation with HRP-conjugated IgG (Jackson ImmunoResearch) for 1 h at room temperature (RT). Detection of phosphorylated species was performed by using the enhanced chemiluminescence (ECL) system (GE Healthcare Bio-Sciences, Piscataway, N.J.).
To investigate whether our NGF-like small chemicals activate p75 we analyzed the activation of the NF-κB pathway (Bonizzi G, Karin M. 2004) and the SAPK/JNK pathway (cell death) in PC12 and RN22 cell lines. […]

[6] = target: T1, TrkA (Rattus norvegicus, UniProt P35739); test: TrkA phosphorylation in PC12 cells (western blot); assay type: cell-based; details: 100 ng/ml, time course
T1 construct: we analyzed their capacity to induce TrkA phosphorylation in PC12 cells; endogenous in cells; host or cells: PC12 cells
Description: Activation of TrkA is the first event in the signalling cascade leading to differentiation and survival of NGF responsive neurons and PC12 cells (Greene and Tischler, 1976; Chao, 2003; Huang and Reichardt, 2003). To evaluate whether the neurotrophic activity of NGF-like peptoids was mediated by the interaction with TrkA receptor, we analyzed their capacity to induce TrkA phosphorylation in PC12 cells. The activity of peptoids was tested in the range of concentrations that were effective on PC12 cells differentiation.
Western Blot Analysis. Subconfluent cells were grown overnight in medium containing 2% FBS and 1% HS and stimulated with 100 ng/ml NGF or the NGF-like small chemicals for the indicated time points. Cells were then washed with cold phosphate-buffered saline (PBS) and briefly sonicated in SDS sample buffer (containing β-mercaptoethanol and 2 mM PMSF). Lysates (200 μg of total proteins) were separated on SDS-PAGE, and transferred to nitrocellulose (Whatman, Dassel, Germany). […]

[7] = tested on: SAPK/JNK; test: SAPK/JNK phosphorylation in RN22 cells (western blot); assay type: cell-based, rat; details: 100 ng/ml
Description: as §2
In several neuronal systems, JNK activation has been causally linked with the induction of programmed cell death (Bhakar et al., 2003). […]

T1 sequence (P35739 33-799): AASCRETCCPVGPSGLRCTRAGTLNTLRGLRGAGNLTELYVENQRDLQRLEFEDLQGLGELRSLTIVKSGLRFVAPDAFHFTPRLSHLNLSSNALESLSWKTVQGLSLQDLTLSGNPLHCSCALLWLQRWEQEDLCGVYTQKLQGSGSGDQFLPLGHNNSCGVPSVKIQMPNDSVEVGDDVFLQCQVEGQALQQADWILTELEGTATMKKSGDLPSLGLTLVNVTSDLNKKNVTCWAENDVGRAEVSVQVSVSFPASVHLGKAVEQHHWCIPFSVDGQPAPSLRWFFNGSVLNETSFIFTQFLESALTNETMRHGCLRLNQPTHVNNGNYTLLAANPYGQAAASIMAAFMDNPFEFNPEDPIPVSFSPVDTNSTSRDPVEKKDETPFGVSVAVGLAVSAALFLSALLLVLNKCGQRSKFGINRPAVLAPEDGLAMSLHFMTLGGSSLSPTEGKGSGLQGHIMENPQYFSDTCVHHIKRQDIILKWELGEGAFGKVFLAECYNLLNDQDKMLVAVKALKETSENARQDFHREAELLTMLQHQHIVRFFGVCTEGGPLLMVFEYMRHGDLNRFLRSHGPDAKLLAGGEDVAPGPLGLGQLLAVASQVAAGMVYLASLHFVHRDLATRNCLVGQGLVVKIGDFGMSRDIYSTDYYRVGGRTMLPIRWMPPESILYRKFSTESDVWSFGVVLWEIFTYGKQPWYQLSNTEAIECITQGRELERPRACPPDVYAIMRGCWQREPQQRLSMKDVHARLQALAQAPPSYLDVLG

Compound | transaminases levels in serum [1] | EAE clinical severity ([2]; any of the concentrations tested (25, 50, 100 mg/kg), 26 days observation) | survival of RN22 cells (cell viability, MTT) [3] | differentiation of PC12 cells [4] | EAE clinical severity ([2]; 25 mg/kg, day 0 to day 25) | EAE clinical symptoms ([2]; higher concentrations (50 and 100 mg/kg)) | time after addition at which p-IκBα levels were increased [5] [min] | time of maximal TrkA phosphorylation [6] [min] | activation of the JNK pathway (phosphorylation of SAPK/JNK) [7]
CC(C)CCN(CC(=O)N(CCc1ccc(S(N)(=O)=O)cc1)CC(N)=O)C(=O)CNCCN1CCCC1 [N6-4-17C, [N-(2-(1-Pyrrolidinyl)ethyl)glycyl]-[N-(3-methylbutyl)glycyl]-N-[2-(4′-sulfamoylphenyl)ethyl]glycinamide] | elevated transaminases levels | not effective in reducing the clinical severity of EAE; also recorded: no effects in EAE | promote survival of RN22 cells | induce the differentiation of PC12 cells at different concentrations to an extent substantially comparable with that induce by NGF |  |  |  |  | 
CC(C)CCN(CC(=O)N(CCc1ccc(S(N)(=O)=O)cc1)CC(N)=O)C(=O)CNCCc1ccccc1F [N35-4-17C, [N-(2-(2′-Fluorophenyl)ethyl)glycyl]-[N-(3-methylbutyl)glycyl]-N-[2-(4′-sulfamoylphenyl)ethyl]glycinamide] | elevated transaminase levels |  | promote survival of RN22 cells | induce the differentiation of PC12 cells at different concentrations to an extent substantially comparable with that induce by NGF | prevents significantly the development of clinical symptoms in EAE | toxic effect worsening the development of the clinical symptoms |  |  | 
NGF: homodimeric protein from the neurotrophin family; used as positive control at 100 ng/ml |  |  |  |  |  |  | ≤ 5 | 30 | obvious
